Data on 21 compounds can be found in patent publication US12187723B2 (BRISTOL-MYERS SQUIBB COMPANY, priority 2019, dated 2025).

The target of this assay is T1, human TLR8 (Homo sapiens, UniProt Q9NR97).
T1 construct: host or cells: HEK-Blue cells
T1 sequence (Q9NR97 27-1041): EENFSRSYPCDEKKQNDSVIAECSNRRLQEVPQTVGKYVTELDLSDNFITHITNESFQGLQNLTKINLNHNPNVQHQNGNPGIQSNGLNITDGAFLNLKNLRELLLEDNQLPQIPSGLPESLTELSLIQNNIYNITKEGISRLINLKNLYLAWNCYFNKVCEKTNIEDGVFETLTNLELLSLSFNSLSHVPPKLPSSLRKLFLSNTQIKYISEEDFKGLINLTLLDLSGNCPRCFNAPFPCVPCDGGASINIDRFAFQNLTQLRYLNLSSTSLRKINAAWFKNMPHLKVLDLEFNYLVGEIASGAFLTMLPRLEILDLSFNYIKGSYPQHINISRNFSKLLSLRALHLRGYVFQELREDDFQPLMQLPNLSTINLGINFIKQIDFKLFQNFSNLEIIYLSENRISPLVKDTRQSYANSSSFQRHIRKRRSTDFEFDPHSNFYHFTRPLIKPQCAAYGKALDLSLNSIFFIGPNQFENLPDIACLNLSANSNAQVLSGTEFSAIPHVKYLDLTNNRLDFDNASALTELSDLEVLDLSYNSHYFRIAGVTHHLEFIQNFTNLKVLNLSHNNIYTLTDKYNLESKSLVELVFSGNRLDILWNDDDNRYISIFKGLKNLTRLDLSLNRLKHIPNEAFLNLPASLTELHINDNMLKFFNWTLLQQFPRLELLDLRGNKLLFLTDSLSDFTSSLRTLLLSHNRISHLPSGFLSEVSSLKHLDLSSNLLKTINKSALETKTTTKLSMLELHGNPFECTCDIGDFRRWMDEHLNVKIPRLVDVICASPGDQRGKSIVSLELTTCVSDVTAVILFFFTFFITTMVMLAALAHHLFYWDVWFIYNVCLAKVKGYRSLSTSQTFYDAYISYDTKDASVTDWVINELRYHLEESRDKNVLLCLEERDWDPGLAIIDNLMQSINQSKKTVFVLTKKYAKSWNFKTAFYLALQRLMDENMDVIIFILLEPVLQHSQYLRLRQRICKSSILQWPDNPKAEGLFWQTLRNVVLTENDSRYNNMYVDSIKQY
As to the kind of experiment: TLR8 inhibition reporter assay (HEK-Blue SEAP). In kind it is cell-based. The following applies: HEK-Blue cells overexpressing human TLR8, R848 15.9 μM, 22 hour incubation. Summed up:
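Dose–response from 0.05 nM to 50 μM was run in HEK-Blue human TLR7, TLR8 and TLR9 reporter cells. After 30 min at room temperature with compound, ligand was added (TLR7 gardiquimod 7.5 μM; TLR8 R848 15.9 μM; TLR9 ODN2006 5 nM) and SEAP measured next day, at 22 h.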
One may read the IC50 as the concentration at which inhibition is half-maximal. Compound `COc1cc(-c2cc3[nH]c(=O)n([C@H]4CC[C@H](NC5COC5)CC4)c3cc2C(C)C)cn2ncnc12` [Example 201, 6-isopropyl-5-(8-methoxy-[1,2,4]triazolo[1,5-a]pyridin-6-yl)-1-((1r,4r)-4-(oxetan-3-ylamino)cyclohexyl)-1,3-dihydro-2H-benzo[d]imidazol-2-one] registered an IC50 of 1.54 nM. This lies in the single-digit nanomolar range.
Under `CCc1cc2c(cc1-c1cc(OC)c3ncnn3c1)[nH]c(=O)n2[C@@H]1CCCN(C2COC2)C1` [Example 173, (R)-6-ethyl-5-(8-methoxy-[1,2,4]triazolo[1,5-a]pyridin-6-yl)-1-(1-(oxetan-3-yl)piperidin-3-yl)-1,3-dihydro-2H-benzo[d]imidazol-2-one] stands 18 nM; under `COc1cc(-c2cc3[nH]c(=O)n([C@H]4CCCN(CCS(C)(=O)=O)C4)c3cc2C(C)C)cn2ncnc12` [Example 222, (S)-6-isopropyl-5-(8-methoxy-[1,2,4]triazolo[1,5-a]pyridin-6-yl)-1-(1-(2-(methylsulfonyl)ethyl)piperidin-3-yl)-1,3-dihydro-2H-benzo[d]imidazol-2-one], 53.2 nM; under `CCc1cc2c(cc1-c1cc(OC)c3ncnn3c1)[nH]c(=O)n2[C@@H]1CCCN(C2CCCOC2)C1` (stereo partly drawn) [Example 215, 6-ethyl-5-(8-methoxy-[1,2,4]triazolo[1,5-a]pyridin-6-yl)-1-((3R)-1-(tetrahydro-2H-pyran-3-yl)piperidin-3-yl)-1,3-dihydro-2H-benzo[d]imidazol-2-one], 13.7 nM.
As for `COc1cc(-c2cc3[nH]c(=O)n([C@H]4CCCN(CC(N)=O)C4)c3cc2C(C)C)cn2ncnc12` [Example 220, (S)-2-(3-(6-isopropyl-5-(8-methoxy-[1,2,4]triazolo[1,5-a]pyridin-6-yl)-2-oxo-2,3-dihydro-1H-benzo[d]imidazol-1-yl)piperidin-1-yl)acetamide], the figure is 100 nM; as for `COc1c(C)c(-c2cc3[nH]c(=O)n(C4CCC(N5CCC(F)(F)CC5)CC4)c3cc2C(C)C)cn2ncnc12` (single isomer, unassigned) [Example 229, 1-(4-(4,4-difluoropiperidin-1-yl)cyclohexyl)-6-isopropyl-5-(8-methoxy-7-methyl-[1,2,4]triazolo[1,5-a]pyridin-6-yl)-1,3-dihydro-2H-benzo[d]imidazol-2-one], 2.18 nM; as for `COc1cc(-c2cc3[nH]c(=O)n(C4CCC(N5CC6(CCOCC6)C5)CC4)c3cc2C(C)C)cn2ncnc12` (single isomer, unassigned) [Example 235, 1-(4-(7-oxa-2-azaspiro[3.5]nonan-2-yl)cyclohexyl)-6-isopropyl-5-(8-methoxy-[1,2,4]triazolo[1,5-a]pyridin-6-yl)-1,3-dihydro-2H-benzo[d]imidazol-2-one], 0.39 nM.
As for `COc1cc(-c2cc3[nH]c(=O)n(C4CCC(N5CCNC(=O)C5)CC4)c3cc2C(C)C)cn2ncnc12` (stereo not drawn) [Example 243, 6-isopropyl-5-(8-methoxy-[1,2,4]triazolo[1,5-a]pyridin-6-yl)-1-(4-(3-oxopiperazin-1-yl)cyclohexyl)-1,3-dihydro-2H-benzo[d]imidazol-2-one], the figure is 81.5 nM; as for `CCCN[C@H]1CC[C@@H](n2c(=O)[nH]c3cc(-c4cc(OC)c5ncnn5c4)c(C(C)C)cc32)CC1` [Example 195, 6-isopropyl-5-(8-methoxy-[1,2,4]triazolo[1,5-a]pyridin-6-yl)-1-((1 s,4s)-4-(propylamino)cyclohexyl)-1,3-dihydro-2H-benzo[d]imidazol-2-one], 0.27 nM.
`COc1cc(-c2cc3[nH]c(=O)n([C@H]4CC[C@H](N(C)C)CC4)c3cc2C(C)C)cn2ncnc12` [Example 202, 1-((1r,4r)-4-(dimethylamino)cyclohexyl)-6-isopropyl-5-(8-methoxy-[1,2,4]triazolo[1,5-a]pyridin-6-yl)-1,3-dihydro-2H-benzo[d]imidazol-2-one]: the concentration for half-maximal inhibition (IC50) is 0.81 nM.
Under `COc1cc(-c2cc3[nH]c(=O)n([C@@H]4CCCN(CCC(C)(C)C)C4)c3cc2C(C)C)cn2ncnc12` [Example 210, (R)-1-(1-(3,3-dimethylbutyl)piperidin-3-yl)-6-isopropyl-5-(8-methoxy-[1,2,4]triazolo[1,5-a]pyridin-6-yl)-1,3-dihydro-2H-benzo[d]imidazol-2-one] stands 3.3 nM.
As for `CCc1cc2c(cc1-c1cc(OC)c3ncnn3c1)[nH]c(=O)n2[C@@H]1CCCN(CCC(F)(F)F)C1` [Example 183, (R)-6-ethyl-5-(8-methoxy-[1,2,4]triazolo[1,5-a]pyridin-6-yl)-1-(1-(3,3,3-trifluoropropyl)piperidin-3-yl)-1,3-dihydro-2H-benzo[d]imidazol-2-one], the figure is 6.44 nM.
As for `COc1cc(-c2cc3[nH]c(=O)n([C@H]4CC[C@H](NC5CCN(C(C)C)CC5)CC4)c3cc2C(C)C)cn2ncnc12` [Example 207, 6-isopropyl-1-((1r,4r)-4-((1-isopropylpiperidin-4-yl)amino)cyclohexyl)-5-(8-methoxy-[1,2,4]triazolo[1,5-a]pyridin-6-yl)-1,3-dihydro-2H-benzo[d]imidazol-2-one], the figure is 4.15 nM; as for `CCc1cc2c(cc1-c1cc(OC)c3ncnn3c1)[nH]c(=O)n2[C@@H]1CCCN(C(=O)CN(C)C)C1` [Example 228, (R)-1-(1-(dimethylglycyl)piperidin-3-yl)-6-ethyl-5-(8-methoxy-[1,2,4]triazolo[1,5-a]pyridin-6-yl)-1,3-dihydro-2H-benzo[d]imidazol-2-one], 38.7 nM.
As for `Cc1c(-c2cc3[nH]c(=O)n([C@H]4CC[C@@H](NCC(C)(C)C)CC4)c3cc2C(C)C)cn2ncnc2c1C` [Example 190, 5-(7,8-dimethyl-[1,2,4]triazolo[1,5-a]pyridin-6-yl)-6-isopropyl-1-((1s,4s)-4-(neopentylamino)cyclohexyl)-1,3-dihydro-2H-benzo[d]imidazol-2-one], the midpoint of inhibition, the IC50, lay at 0.08 nM.
Under `COCCN1CCC[C@H](n2c(=O)[nH]c3cc(-c4cc(OC)c5ncnn5c4)c(C(C)C)cc32)C1` [Example 221, (S)-6-isopropyl-5-(8-methoxy-[1,2,4]triazolo[1,5-a]pyridin-6-yl)-1-(1-(2-methoxyethyl)piperidin-3-yl)-1,3-dihydro-2H-benzo[d]imidazol-2-one] stands 5.67 nM; under `COCCN1CCC[C@@H](n2c(=O)[nH]c3cc(-c4cc(OC)c5ncnn5c4)c(C(C)C)cc32)C1` [Example 226, (R)-6-isopropyl-5-(8-methoxy-[1,2,4]triazolo[1,5-a]pyridin-6-yl)-1-(1-(2-methoxyethyl)piperidin-3-yl)-1,3-dihydro-2H-benzo[d]imidazol-2-one], 4.15 nM; under `CCc1cc2c(cc1-c1cc(OC)c3ncnn3c1)[nH]c(=O)n2[C@@H]1CCCN(CC2CCOCC2)C1` [Example 175, (R)-6-ethyl-5-(8-methoxy-[1,2,4]triazolo[1,5-a]pyridin-6-yl)-1-(1-((tetrahydro-2H-pyran-4-yl)methyl)piperidin-3-yl)-1,3-dihydro-2H-benzo[d]imidazol-2-one], 2.23 nM.
As for `COc1cc(-c2cc3[nH]c(=O)n(C4CCC(N5CC(O)(C(F)(F)F)C5)CC4)c3cc2C(C)C)cn2ncnc12` (single isomer, unassigned) [Example 242, 1-(4-(3-hydroxy-3-(trifluoromethyl)azetidin-1-yl)cyclohexyl)-6-isopropyl-5-(8-methoxy-[1,2,4]triazolo[1,5-a]pyridin-6-yl)-1,3-dihydro-2H-benzo[d]imidazol-2-one], the figure is 1.12 nM; as for `CCc1cc2c(cc1-c1cc(OC)c3ncnn3c1)[nH]c(=O)n2[C@@H]1CCCN(C(C)C)C1` [Example 172, (R)-6-ethyl-1-(1-isopropylpiperidin-3-yl)-5-(8-methoxy-[1,2,4]triazolo[1,5-a]pyridin-6-yl)-1,3-dihydro-2H-benzo[d]imidazol-2-one], 1.75 nM; as for `Cc1c(-c2cc3[nH]c(=O)n([C@H]4CC[C@@H](N(C)C)CC4)c3cc2C(C)C)cn2ncnc2c1C` [Example 185, 5-(7,8-dimethyl-[1,2,4]triazolo[1,5-a]pyridin-6-yl)-1-((1s,4s)-4-(dimethylamino)cyclohexyl)-6-isopropyl-1,3-dihydro-2H-benzo[d]imidazol-2-one], 0.36 nM.
